Data taken from ChEMBL document CHEMBL3879916, “1-sulfonyl piperidine derivatives as modulators of prokineticin receptors” (2014).

Target: Prokineticin receptor 1 (Homo sapiens, UniProt Q8TCW9)
Assay: Antagonist activity at human PKR1 expressed in RBL2H3 cells assessed as inhibition of prokineticin1-mediated intracellular calcium release preincubated for 10 mins followed by PK1 addition by FLIPR assay
Format: functional, cell-based, RBL-2H3

Chain of Prokineticin receptor 1 (Q8TCW9 whole entry): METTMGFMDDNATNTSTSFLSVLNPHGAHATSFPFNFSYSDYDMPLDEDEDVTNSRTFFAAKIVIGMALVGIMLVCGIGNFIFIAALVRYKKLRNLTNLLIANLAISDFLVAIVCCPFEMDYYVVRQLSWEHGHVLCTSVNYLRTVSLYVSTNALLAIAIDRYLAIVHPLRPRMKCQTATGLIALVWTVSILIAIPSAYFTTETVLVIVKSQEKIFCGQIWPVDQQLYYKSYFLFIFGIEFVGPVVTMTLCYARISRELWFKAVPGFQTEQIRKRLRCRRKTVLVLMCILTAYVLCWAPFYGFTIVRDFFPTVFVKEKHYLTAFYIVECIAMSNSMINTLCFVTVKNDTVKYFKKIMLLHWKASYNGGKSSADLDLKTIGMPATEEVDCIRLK

Cc1n[nH]c(C)c1S(=O)(=O)N1CCC(=C(F)c2ccc(F)cc2F)CC1
IC50: 1630 nM
